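How tested: cells in 96-well plates exposed to compound for 48 hours at five concentrations. GI50 = concentration required for 50% inhibition of growth. The concentration for full growth arrest is given as TGI.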
How the values were obtained:
Test in all cases: NCI tumour cell line growth inhibition, 48 h
SK-MEL-5 melanoma = test system: SK-MEL-5 melanoma
SK-OV-3 ovarian = test system: SK-OV-3 ovarian
DU-145 prostate = test system: DU-145 prostate
NCI/ADR-RES ovarian = test system: NCI/ADR-RES ovarian
LOX IMVI melanoma = test system: LOX IMVI melanoma
OVCAR-8 ovarian = test system: OVCAR-8 ovarian
SN12C renal = test system: SN12C renal
OVCAR-5 ovarian = test system: OVCAR-5 ovarian
K-562 leukemia = test system: K-562 leukemia
HT29 colon = test system: HT29 colon
T-47D breast = test system: T-47D breast
A549 NSCLC = test system: A549 NSCLC
MDA-MB-435 = test system: MDA-MB-435
NCI-H460 lung = test system: NCI-H460 lung
HS 578T breast = test system: HS 578T breast
MOLT-4 leukemia = test system: MOLT-4 leukemia
KM12 colon = test system: KM12 colon
UACC-62 melanoma = test system: UACC-62 melanoma
MALME-3M melanoma = test system: MALME-3M melanoma
SF-539 CNS = test system: SF-539 CNS
NCI-H23 lung = test system: NCI-H23 lung
MCF7 breast = test system: MCF7 breast
HOP-92 NSCLC = test system: HOP-92 NSCLC
SK-MEL-28 melanoma = test system: SK-MEL-28 melanoma
HCT-116 colon = test system: HCT-116 colon
SR leukemia = test system: SR leukemia
U251 CNS = test system: U251 CNS
EKVX NSCLC = test system: EKVX NSCLC
HCT-15 colon = test system: HCT-15 colon
786-0 renal = test system: 786-0 renal
SNB-19 CNS = test system: SNB-19 CNS
SF-268 CNS = test system: SF-268 CNS
NCI-H226 lung = test system: NCI-H226 lung
HCC-2998 colon = test system: HCC-2998 colon
SNB-75 CNS = test system: SNB-75 CNS
HL-60(TB) leukemia = test system: HL-60(TB) leukemia
COLO 205 colon = test system: COLO 205 colon
BT-549 breast = test system: BT-549 breast
SW-620 colon = test system: SW-620 colon
SF-295 CNS = test system: SF-295 CNS
OVCAR-4 ovarian = test system: OVCAR-4 ovarian
MDA-MB-231 breast = test system: MDA-MB-231 breast
ACHN renal = test system: ACHN renal
SK-MEL-2 melanoma = test system: SK-MEL-2 melanoma
UACC-257 melanoma = test system: UACC-257 melanoma
M14 melanoma = test system: M14 melanoma
UO-31 renal = test system: UO-31 renal
PC-3 prostate = test system: PC-3 prostate
IGROV1 ovarian = test system: IGROV1 ovarian
OVCAR-3 ovarian = test system: OVCAR-3 ovarian
CAKI-1 renal = test system: CAKI-1 renal
CCRF-CEM leukemia = test system: CCRF-CEM leukemia
A498 renal = test system: A498 renal
TK-10 renal = test system: TK-10 renal
NCI-H522 lung = test system: NCI-H522 lung
HOP-62 NSCLC = test system: HOP-62 NSCLC
RXF 393 renal = test system: RXF 393 renal
RPMI-8226 leukemia = test system: RPMI-8226 leukemia

Cc1nnc(C[C@@H]2C=C(c3ccc(Cl)cc3)c3ccccc3-n3c(C)nnc32)o1
GI50 (SK-MEL-5 melanoma): 1810 nM
TGI (SK-MEL-5 melanoma): 19.7 µM
GI50 (SK-OV-3 ovarian): 262 nM
TGI (SK-OV-3 ovarian): 12 µM
GI50 (DU-145 prostate): 17.6 µM
TGI (DU-145 prostate): > 100 µM
GI50 (NCI/ADR-RES ovarian): 1860 nM
TGI (NCI/ADR-RES ovarian): 43.7 µM
GI50 (LOX IMVI melanoma): 400 nM
TGI (LOX IMVI melanoma): 16 µM
GI50 (OVCAR-8 ovarian): 2940 nM
TGI (OVCAR-8 ovarian): > 67.4 µM
GI50 (SN12C renal): 12 µM
TGI (SN12C renal): > 100 µM
GI50 (OVCAR-5 ovarian): 4.7 µM
TGI (OVCAR-5 ovarian): > 100 µM
GI50 (K-562 leukemia): 809 nM
TGI (K-562 leukemia): > 100 µM
GI50 (HT29 colon): 241 nM
TGI (HT29 colon): > 100 µM
GI50 (T-47D breast): 719 nM
TGI (T-47D breast): > 92.7 µM
GI50 (A549 NSCLC): 2610 nM
TGI (A549 NSCLC): > 82.2 µM
GI50 (MDA-MB-435): 858 nM
TGI (MDA-MB-435): 55.9 µM
GI50 (NCI-H460 lung): 11.7 µM
TGI (NCI-H460 lung): > 100 µM
GI50 (HS 578T breast): 578 nM
TGI (HS 578T breast): 46.1 µM
GI50 (MOLT-4 leukemia): 8.35 µM
TGI (MOLT-4 leukemia): > 100 µM
GI50 (KM12 colon): 6.25 µM
TGI (KM12 colon): > 100 µM
GI50 (UACC-62 melanoma): 118 nM
TGI (UACC-62 melanoma): 18.9 µM
GI50 (MALME-3M melanoma): 5.01 µM
TGI (MALME-3M melanoma): 64.6 µM
GI50 (SF-539 CNS): 1160 nM
TGI (SF-539 CNS): 54.3 µM
GI50 (NCI-H23 lung): 1510 nM
TGI (NCI-H23 lung): 96.9 µM
GI50 (MCF7 breast): 221 nM
TGI (MCF7 breast): > 100 µM
GI50 (HOP-92 NSCLC): 1960 nM
TGI (HOP-92 NSCLC): > 75.1 µM
GI50 (SK-MEL-28 melanoma): 2240 nM
TGI (SK-MEL-28 melanoma): > 100 µM
GI50 (HCT-116 colon): 472 nM
TGI (HCT-116 colon): 31.9 µM
GI50 (SR leukemia): 270 nM
TGI (SR leukemia): > 70.6 µM
GI50 (U251 CNS): 4.81 µM
TGI (U251 CNS): > 76.1 µM
GI50 (EKVX NSCLC): 6.01 µM
TGI (EKVX NSCLC): > 100 µM
GI50 (HCT-15 colon): 461 nM
TGI (HCT-15 colon): 40.2 µM
GI50 (786-0 renal): 1040 nM
TGI (786-0 renal): 38.7 µM
GI50 (SNB-19 CNS): 5.53 µM
TGI (SNB-19 CNS): > 100 µM
GI50 (SF-268 CNS): 13.1 µM
TGI (SF-268 CNS): 73.5 µM
GI50 (NCI-H226 lung): 12.6 µM
TGI (NCI-H226 lung): > 100 µM
GI50 (HCC-2998 colon): 1330 nM
TGI (HCC-2998 colon): 18.6 µM
GI50 (SNB-75 CNS): 48 nM
TGI (SNB-75 CNS): 47.3 µM
GI50 (HL-60(TB) leukemia): 250 nM
TGI (HL-60(TB) leukemia): 35.5 µM
GI50 (COLO 205 colon): 296 nM
TGI (COLO 205 colon): 24.1 µM
GI50 (BT-549 breast): 1480 nM
TGI (BT-549 breast): 29.2 µM
GI50 (SW-620 colon): 12 µM
TGI (SW-620 colon): 68.7 µM
GI50 (SF-295 CNS): 1710 nM
TGI (SF-295 CNS): 43 µM
GI50 (OVCAR-4 ovarian): 1290 nM
TGI (OVCAR-4 ovarian): > 100 µM
GI50 (MDA-MB-231 breast): 1500 nM
TGI (MDA-MB-231 breast): > 100 µM
GI50 (ACHN renal): 1250 nM
TGI (ACHN renal): > 100 µM
GI50 (SK-MEL-2 melanoma): 10.2 µM
TGI (SK-MEL-2 melanoma): 47.6 µM
GI50 (UACC-257 melanoma): 2430 nM
TGI (UACC-257 melanoma): > 100 µM
GI50 (M14 melanoma): 529 nM
TGI (M14 melanoma): 56.7 µM
GI50 (UO-31 renal): 73.9 nM
TGI (UO-31 renal): 44.4 µM
GI50 (PC-3 prostate): 3.53 µM
TGI (PC-3 prostate): > 100 µM
GI50 (IGROV1 ovarian): 2300 nM
TGI (IGROV1 ovarian): > 100 µM
GI50 (OVCAR-3 ovarian): 1080 nM
TGI (OVCAR-3 ovarian): 19.8 µM
GI50 (CAKI-1 renal): 133 nM
TGI (CAKI-1 renal): 93.7 µM
GI50 (CCRF-CEM leukemia): 8.6 µM
TGI (CCRF-CEM leukemia): > 94.1 µM
GI50 (A498 renal): 712 nM
TGI (A498 renal): 12.7 µM
GI50 (TK-10 renal): 148 nM
TGI (TK-10 renal): 27.1 µM
GI50 (NCI-H522 lung): 578 nM
TGI (NCI-H522 lung): 32.4 µM
GI50 (HOP-62 NSCLC): 318 nM
TGI (HOP-62 NSCLC): > 90.4 µM
GI50 (RXF 393 renal): 1390 nM
TGI (RXF 393 renal): 18.9 µM
GI50 (RPMI-8226 leukemia): 135 nM
TGI (RPMI-8226 leukemia): 19.8 µM
